Reference: US6849272B1, “Endosomolytic agents and cell delivery systems” (Massachusetts Institute of Technology, priority 1999, dated 2005)

Key:
cells [1] = type: cell-based
Description: Another synthetic polymer that has been recently evaluated for its ability to mediate gene transfer is polyethyleneimine (PEI) which contains primary, secondary, and tertiary amines (Abdallah, B.; Hassan, A.; Benoist; Goula, D.; Behr, J. P.; Demeneix, B. A. Human Gene Therapy 1996, 7, 1947; Boussif, O.; Lezoualc'h, F.; Zanta, M. A.; Mergny, M. D., Scherman, D.; Demeneix, B.; Behr, J. P. Proc. Natl. Acad. Sci. USA 1995, 92, 7297). The advantage of PEI over polylysine as a mediator for gene transfer is that it contains a built-in mechanism for endosome escape. The overall protonation of PEI at pH=7 is approximately 20% whereas the overall protonation at pH=5 is approximately 45% (Suh, J.; Paik, H. J.; Hwang, B. K. Bioorg. Chem. 1994, 22, 318). […] In fact, PEI is capable of mediating gene transfer equal to the best lipid systems.

cells [2] = details: in vitro; cited from earlier work

Compound | toxicity to cells in vitro (cells [1]) | concentration required to enhance transfection (cells [2])
polyethyleneimine [PEI] | toxic to cells in vitro | 
OCC(O)CO [glycerol] |  | 1-1.5 M
